Laboratory results taken from patent publication US9803164B2, “Megakaryocyte and platelet production from stem cells” (priority 2011, dated 2017).
Residues, ends and D or L forms follow the SMILES beside them. *: point of attachment. Cbz = O=C(OCc1ccccc1)*; CH2F = FC*

What was measured:
Assay type in all cases: cell-based
[1] = test system: megakaryocytes; assay: Proplatelet formation quantification (grid strategy); settings: day 11; treated on day 8; p=0.02, n=3
Method: (§1) At the completion of the megakaryocyte differentiation stage on day 8, megakaryocytes were stimulated to undergo polyploidization by adding either the actin polymerization inhibitor, latrunculin (Santa Cruz Biotechnologies, Dallas, Tex.), at a final concentration of 10 μg/ml, or the Rho-kinase inhibitor, Y27632 (Sigma Aldrich, St. Louis, Mo.), at 10 μM, and then culturing the cells for an additional 3 or 4 days.
Proplatelet formation was quantified on day 11 of culture using a grid strategy, as previously described by M. P. Avanzi et al., Rho kinase inhibition drives megakaryocyte polyploidization and proplatelet formation through MYC and NFE2 downregulation, 164(6) BR. J HAEMATOL. 867 (March 2014). Briefly, using an inverted light microscope (Olympus CKX41) 10 random-field images were acquired at 40× magnification from each well. All megakaryocytes present on each field were counted. A counting grid with 25 μm squares was used to enumerate the number of proplatelet processes. Each proplatelet segment inside each square was counted and the sum of all segments in 10 random field images (40× magnification) was used for comparison. From these numbers, a measure of proplatelet density per cell per unit area was generated and used to compare the results of different culture conditions.

[2] = test system: megakaryocytes (CD41 cells); assay: Megakaryocyte ploidy by flow cytometry after induction of polyploidization; settings: day 11; treated once on day 8; latrunculin 10 μg/ml or Y27632 10 μM; controls less than 10%; p=0.007, n=3
Method: as §1
Megakaryocyte ploidy was analyzed on day 11 of culture. Cells were labeled with Alexa 647-conjugated anti-CD41 antibody, incubated for 20 min on ice, fixed with 4% paraformaldehyde (Fisher Scientific) for 15 minutes and then washed with PBS. Next, cells were permeabilized with methanol 75% (Sigma Aldrich) for 1 hour at 4° C. and washed with PBS+BSA, 2%+NP40, 0.05% (Fischer Scientific) solution. Finally cells were treated with Propidium Iodide/RNase solution (Becton Dickinson) and incubated for 30 minutes in the dark at room temperature before flow cytometry analysis.

[3] = test system: UCB derived CD34 cells; assay: Expansion of UCB derived CD34 enriched cells in serum-free suspension culture with reagents; settings: control mean 40-fold, n=3; for CD34 fold expansion (mean): day 7 of culture, SR-1 0.75 μM, TEPA 5 μM, zVADfmk 100 nM, SCF, TPO, FLT3-ligand 50 ng/ml
Method: Umbilical cord blood units not suitable for clinical use were obtained from the New York Blood Center National Cord Blood Bank, where they were collected after informed consent in accord with the Declaration of Helsinki. Isolation of umbilical cord blood CD34 cells was performed using either a positive selection or a negative selection method. The positive selection method used has been described in G. Mattia et al., Different ploidy levels of megakaryocytes generated from peripheral or cord blood CD34+ cells are correlated with different levels of platelet release, 99(3) BLOOD 888 (February 2002). Briefly, mononuclear cells were layered on a Ficoll-Hypaque gradient (GE Healthcare, Barrington, Ill.), washed twice with phosphate-buffered saline (PBS) (Life Technologies) supplemented with 5% fetal bovine serum (FBS) (Life Technologies). To purify CD34 cells, the mononuclear selection fraction was subject to two cycles of immunomagnetic bead separation using a MINIMACS CD34 isolation kit (Miltenyi Biotech, Auburn, Calif.), according to manufacturer's recommendations. The purity of the sample ranged from 70% to 90% CD34 positive and was approximately 30% CD41 positive based on flow cytometry analysis.
The negative selection method was based on previously described methods where umbilical cord blood-derived CD34 cells were enriched by a negative selection method with the use of ROSETTESEP (Stem Cell Technologies, Vancouver, Canada). M. P. Avanzi et al., Optimizing megakaryocyte polyploidization by targeting multiple pathways of cytokinesis, 52(11) TRANSFUSION 2406 (November 2012). Briefly, cells were washed with phosphate buffered saline (PBS, Life Technologies) and incubated with ROSETTESEP reagent for 10 min at room temperature. Next, cells were layered on a Ficoll-Hypaque gradient, washed twice with phosphate-buffered saline. The final product was approximately 20% to 30% CD34 positive and 30% CD41 positive.
UCB derived CD34 enriched cells were plated at a density of 1×10^4 per well (24 well plate) in suspension culture and combined with one of the following reagents: STEM REGENIN-1 (StemCell Technologies, Vancouver, BC), 0.75 μM; copper chelator tetraethylenepentamine, 5 μM (TEPA) (Sigma Aldrich, St Louis, Mo.); or zVADfmk, 100 nM (Abcam, Cambridge, Mass.). Reagents were added with culture medium and cytokine cocktail on day 0, 4, 7 and 10 of culture. Additionally, in separate experiments, CD34 enriched cells were expanded on NANEX nanofiber membranes (Arteriocyte, Cleveland Ohio). […]
All flow cytometry experiments where performed with a BD FACS LSR FORTESSA machine (Becton Dickinson, San Jose, Calif.) and analyzed with BD FACSDIVA software (Becton Dickinson). […] Labeled cells were then analyzed and counted.

[4] = test system: platelets collected from the bioreactor; assay: Platelet surface expression of P-selectin after activation, flow cytometry; settings: PMA 10 μg/mL, 15 min, room temperature; 25% at baseline
Method: Platelets collected from the bioreactor were tested for their function based on the externalization of P-Selectin after activation with phorbol myristate acetate (PMA) using flow cytometry. Platelets were collected in eppendorf tubes, labeled with Alexa 647-conjugated anti-CD41 antibody, PE-conjugated anti-CD-62P (Becton Dickinson) and a live cell stain, Calcein AM (Sigma-Aldrich) for 15 min at room temperature. Next, platelets were activated using PMA (Sigma Aldrich) 10 μg/mL for 15 min at room temperature. Cells were then analyzed by flow cytometry for P-Selectin externalization. Anti-Y1-PE (Becton Dickinson) was used as an isotype control.

Compound	Proplatelets generated compared with control megakaryocytes [1]	Proportion of megakaryocytes with ploidy >8 [2] [%]	CD34 fold expansion (mean) [3] [fold]	other results
C[C@@H](N)[C@H]1CC[C@H](C(=O)Nc2ccncc2)CC1 [Y27632]	significantly more	30	–	–
CC(C)n1cnc2c(NCCc3ccc(O)cc3)nc(-c3csc4ccccc34)nc21 [SR-1, stem regenin-1]	–	–	85	CD34 fold expansion versus control culture (significance) ([3]; day 7): not significantly different
COC(=O)CC(NC(=O)C(C)NC(=O)C(NC(=O)OCc1ccccc1)C(C)C)C(=O)CF (stereo not drawn) [zVADfmk, benzyloxycarbonyl-Val-Ala-Asp (OMe) fluoromethylketone] (Cbz-Val-Ala-Asp(OMe)-CH2F; configuration not given here)	–	–	25	–
NCCNCCNCCNCCN [TEPA, tetraethylenepentamine]	–	–	19	–
CCCCCCCCCCCCCC(=O)O[C@@H]1[C@@H](C)[C@@]2(O)[C@@H](C=C(CO)C[C@]3(O)C(=O)C(C)=C[C@@H]23)[C@@H]2C(C)(C)[C@]12OC(C)=O [PMA, phorbol 12-myristate 13-acetate]	–	–	–	Particles expressing p-selectin after stimulation [4]: 65%
latrunculin	significantly more	30	–	–
